Target: Sigma non-opioid intracellular receptor 1 (Cavia porcellus)
Experiment: Ability to displace [3H](+)-pentazocine from Sigma opioid receptor type 1 of guinea pig brain

| Ki [nM] | SMILES |
| --- | --- |
| 2.17 | OC1Cc2ccccc2C2(CCN(Cc3ccccc3)CC2)O1 (stereo not drawn) |

Target: Sigma-2 receptor (Rattus norvegicus)
Experiment: Ability to displace [3H]ditolylguanidine in the presence of 100 nM (+)-pentazocine from Sigma opioid receptor type 2 of rat liver

| Ki [nM] | SMILES |
| --- | --- |
| 513 | OC1Cc2ccccc2C2(CCN(Cc3ccccc3)CC2)O1 (stereo not drawn) |

Organism: Rattus norvegicus
Experiment: Ratio of binding affinity towards Sigma opioid receptor type 1 versus Sigma opioid receptor type 2

| Selectivity | SMILES |
| --- | --- |
| 29 | CNCCC1Cc2ccccc2C2(CCN(Cc3ccccc3)CC2)O1 (stereo not drawn) |
| 668 | OCCC1Cc2ccccc2C2(CCN(Cc3ccccc3)CC2)O1 (stereo not drawn) |
| 295 | N#CCC1Cc2ccccc2C2(CCN(Cc3ccccc3)CC2)O1 (stereo not drawn) |
| 292 | OCC1Cc2ccccc2C2(CCN(Cc3ccccc3)CC2)O1 (stereo not drawn) |
| 236 | OC1Cc2ccccc2C2(CCN(Cc3ccccc3)CC2)O1 (stereo not drawn) |
| 180 | O=CCC1Cc2ccccc2C2(CCN(Cc3ccccc3)CC2)O1 (stereo not drawn) |

More lines, now with the values behind:

| SMILES | Selectivity |
| --- | --- |
| N#CCC1OC2(CCN(Cc3ccccc3)CC2)c2ccccc21 (stereo not drawn) | 768 |
| CCOC(=O)C1Cc2ccccc2C2(CCN(Cc3ccccc3)CC2)O1 (stereo not drawn) | 1130 |
| CCOC(=O)CC1OC2(CCN(Cc3ccccc3)CC2)c2ccccc21 (stereo not drawn) | 449 |
| CCOC(=O)CC1Cc2ccccc2C2(CCN(Cc3ccccc3)CC2)O1 (stereo not drawn) | 124 |
| CCOC(=O)C1OC2(CCN(Cc3ccccc3)CC2)c2ccccc21 (stereo not drawn) | 796 |
